Source: US7528252B2, “Derivatives of triazoly-imidazopyridine useful as ligands of the adenosine A2a receptor and their use as medicaments” (Sigma-Tau Industrie Farmaceutiche Riunite S.p.A., priority 2002, dated 2009)
Like-named read-outs stand apart in the source and are kept apart here.

Key:
human A2b receptor = target: T1, human A2b receptor (Homo sapiens, UniProt P29275); assay: Affinity towards the adenosine A2b receptor ([3H]-DPCPX binding, HEK 293 membranes); conditions: read-out: A2b Ki (nM) ± sd
T1 construct: expressed in transfected cells; host or cells: HEK 293
T1 sequence (P29275 1-332): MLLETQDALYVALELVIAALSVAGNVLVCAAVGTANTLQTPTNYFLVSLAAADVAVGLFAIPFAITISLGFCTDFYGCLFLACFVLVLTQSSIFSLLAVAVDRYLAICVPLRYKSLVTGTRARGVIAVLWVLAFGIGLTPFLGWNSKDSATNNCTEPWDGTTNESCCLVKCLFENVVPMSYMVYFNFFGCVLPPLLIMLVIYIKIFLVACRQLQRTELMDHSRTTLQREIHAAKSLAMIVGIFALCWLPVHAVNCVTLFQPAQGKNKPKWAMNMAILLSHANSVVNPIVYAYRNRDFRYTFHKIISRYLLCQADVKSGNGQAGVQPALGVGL
Protocol: The interactive capacity of each product towards the adenosine A2b receptor was evaluated using membranes from HEK 293 cells stably expressing the human A2b receptor subtype exclusively.
Non-specific binding was measured in the presence of NECA (50 μM).
In binding studies for each compound, eight different concentrations (from 10^−5 M to 10^−12 M) were evaluated in order to obtain competition curves. By means of non-linear regression analysis of the competition curves, the IC50 values, which express the binding affinity of each product, were determined. Using the Cheng Prusoff equation (Ki=IC50/1+(L/Kd)) Ki values were calculated through which the affinity of each product studied, for the receptor investigated, is expressed.

[1] = target: T2, human A3 subtype adenosine receptor (Homo sapiens, UniProt P0DMS8); assay: Affinity towards the adenosine A3 receptor ([125I]AB-MECA binding, HEK-293 membranes); conditions: test compounds; read-out: A3 (h) Ki
T2 construct: expressed in transfected cells; host or cells: HEK-293

ADOtransporter = assay: Receptor binding study, ADO transporter; conditions: 1 μM; mean values, n = 2
α2(non-selective) = assay: Receptor binding study, α2; conditions: 1 μM; mean values, n = 2
β1 = β1 (Homo sapiens, UniProt P08588); assay: Receptor binding study, β1; conditions: mean values, n = 2, read-out: percent inhibition of control specific binding
β2 = β2 (Homo sapiens, UniProt P07550); assay: Receptor binding study, β2; conditions: mean values, n = 2, read-out: percent inhibition of control specific binding
BZD (central) = assay: Receptor binding study, BZD (central); conditions: 1 μM; mean values, n = 2
D1 = D1 (Homo sapiens, UniProt P21728); assay: Receptor binding study, D1; conditions: mean values, n = 2, read-out: percent inhibition of control specific binding
D2 = D2 (Homo sapiens, UniProt P14416); assay: Receptor binding study, D2; conditions: mean values, n = 2, read-out: percent inhibition of control specific binding
D3 = D3 (Homo sapiens, UniProt P35462); assay: Receptor binding study, D3; conditions: mean values, n = 2, read-out: percent inhibition of control specific binding
D4.4 (h) = D4.4 (h) (Homo sapiens, UniProt P21917); assay: Receptor binding study, D4.4; conditions: mean values, n = 2, read-out: percent inhibition of control specific binding
GABAa = assay: Receptor binding study, GABAa; conditions: 1 μM; mean values, n = 2
GABAb = GABAb (Homo sapiens, UniProt Q9UBS5); assay: Receptor binding study, GABAb; conditions: mean values, n = 2, read-out: percent inhibition of control specific binding
GABAtransporter = assay: Receptor binding study, GABA transporter; conditions: 1 μM; mean values, n = 2
AMPA = assay: Receptor binding study, AMPA; conditions: 1 μM; mean values, n = 2
PCP = assay: Receptor binding study, PCP; conditions: 1 μM; mean values, n = 2
P2X = assay: Receptor binding study, P2X; conditions: 1 μM; mean values, n = 2
P2Y = assay: Receptor binding study, P2Y; conditions: 1 μM; mean values, n = 2
NMDA = assay: Receptor binding study, NMDA; conditions: 1 μM; mean values, n = 2
M1 = M1 (Homo sapiens, UniProt P11229); assay: Receptor binding study, M1; conditions: mean values, n = 2, read-out: percent inhibition of control specific binding
M2 = M2 (Homo sapiens, UniProt P08172); assay: Receptor binding study, M2; conditions: mean values, n = 2, read-out: percent inhibition of control specific binding
M3 = M3 (Homo sapiens, UniProt P20309); assay: Receptor binding study, M3; conditions: mean values, n = 2, read-out: percent inhibition of control specific binding
M4 = M4 (Homo sapiens, UniProt P08173); assay: Receptor binding study, M4; conditions: mean values, n = 2, read-out: percent inhibition of control specific binding
Cholinetransporter = target: T3, Cholinetransporter (Homo sapiens, UniProt Q9GZV3); assay: Receptor binding study, Choline transporter; conditions: 1 μM; mean values, n = 2; read-out: percent inhibition of control specific binding
T3 sequence (Q9GZV3 1-580): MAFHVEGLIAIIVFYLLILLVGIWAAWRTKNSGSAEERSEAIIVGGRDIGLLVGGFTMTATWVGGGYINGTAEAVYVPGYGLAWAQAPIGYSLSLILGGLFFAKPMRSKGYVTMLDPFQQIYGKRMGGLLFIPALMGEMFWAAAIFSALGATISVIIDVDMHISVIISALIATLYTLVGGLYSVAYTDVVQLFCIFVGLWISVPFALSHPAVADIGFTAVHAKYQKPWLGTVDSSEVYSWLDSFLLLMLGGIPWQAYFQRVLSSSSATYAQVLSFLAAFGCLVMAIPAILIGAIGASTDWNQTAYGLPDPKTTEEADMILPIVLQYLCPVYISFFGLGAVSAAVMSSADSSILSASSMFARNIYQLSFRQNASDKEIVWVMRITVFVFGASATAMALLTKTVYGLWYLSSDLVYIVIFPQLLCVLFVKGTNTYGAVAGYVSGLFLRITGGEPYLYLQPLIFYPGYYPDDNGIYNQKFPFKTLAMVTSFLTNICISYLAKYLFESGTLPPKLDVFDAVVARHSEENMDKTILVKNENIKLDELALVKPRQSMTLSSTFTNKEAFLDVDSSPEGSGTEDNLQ

Opiate (non-selective) = assay: Receptor binding study, Opiate (non-selective); conditions: 1 μM; mean values, n = 2
5-HT2C (h) = 5-HT2C (h) (Homo sapiens, UniProt P28335); assay: Receptor binding study, 5-HT2C; conditions: mean values, n = 2, read-out: percent inhibition of control specific binding
5-HT4 = 5-HT4 (Homo sapiens, UniProt Q13639); assay: Receptor binding study, 5-HT4; conditions: mean values, n = 2, read-out: percent inhibition of control specific binding
5-HT5A (h) = 5-HT5A (h) (Homo sapiens, UniProt P47898); assay: Receptor binding study, 5-HT5A; conditions: mean values, n = 2, read-out: percent inhibition of control specific binding
5-HT transporter = 5-HT transporter (Homo sapiens, UniProt P31645); assay: Receptor binding study, 5-HT transporter; conditions: read-out: percent inhibition of control specific binding

Sequence of D2 (P14416 whole entry): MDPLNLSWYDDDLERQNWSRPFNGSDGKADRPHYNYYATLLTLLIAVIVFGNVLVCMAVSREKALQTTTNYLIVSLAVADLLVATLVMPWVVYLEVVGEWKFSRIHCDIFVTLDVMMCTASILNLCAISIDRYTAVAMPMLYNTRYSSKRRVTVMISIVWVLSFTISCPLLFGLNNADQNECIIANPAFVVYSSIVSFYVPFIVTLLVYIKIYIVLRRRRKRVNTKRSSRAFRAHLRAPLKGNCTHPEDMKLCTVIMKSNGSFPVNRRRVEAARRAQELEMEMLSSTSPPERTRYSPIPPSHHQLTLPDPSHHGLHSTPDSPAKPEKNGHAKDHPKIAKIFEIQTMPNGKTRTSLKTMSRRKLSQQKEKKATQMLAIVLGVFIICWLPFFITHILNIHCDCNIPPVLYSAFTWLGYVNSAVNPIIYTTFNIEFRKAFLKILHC
T2 sequence (P0DMS8 whole entry): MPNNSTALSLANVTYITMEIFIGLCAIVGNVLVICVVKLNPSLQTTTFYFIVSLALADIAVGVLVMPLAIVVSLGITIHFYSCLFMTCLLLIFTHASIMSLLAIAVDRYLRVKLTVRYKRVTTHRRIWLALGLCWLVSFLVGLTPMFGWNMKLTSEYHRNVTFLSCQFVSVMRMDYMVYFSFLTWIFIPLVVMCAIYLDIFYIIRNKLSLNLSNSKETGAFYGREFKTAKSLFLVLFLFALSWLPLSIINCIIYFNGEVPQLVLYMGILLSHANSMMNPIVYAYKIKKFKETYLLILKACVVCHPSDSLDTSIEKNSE
Sequence of GABAb (Q9UBS5 15-961 limits assumed): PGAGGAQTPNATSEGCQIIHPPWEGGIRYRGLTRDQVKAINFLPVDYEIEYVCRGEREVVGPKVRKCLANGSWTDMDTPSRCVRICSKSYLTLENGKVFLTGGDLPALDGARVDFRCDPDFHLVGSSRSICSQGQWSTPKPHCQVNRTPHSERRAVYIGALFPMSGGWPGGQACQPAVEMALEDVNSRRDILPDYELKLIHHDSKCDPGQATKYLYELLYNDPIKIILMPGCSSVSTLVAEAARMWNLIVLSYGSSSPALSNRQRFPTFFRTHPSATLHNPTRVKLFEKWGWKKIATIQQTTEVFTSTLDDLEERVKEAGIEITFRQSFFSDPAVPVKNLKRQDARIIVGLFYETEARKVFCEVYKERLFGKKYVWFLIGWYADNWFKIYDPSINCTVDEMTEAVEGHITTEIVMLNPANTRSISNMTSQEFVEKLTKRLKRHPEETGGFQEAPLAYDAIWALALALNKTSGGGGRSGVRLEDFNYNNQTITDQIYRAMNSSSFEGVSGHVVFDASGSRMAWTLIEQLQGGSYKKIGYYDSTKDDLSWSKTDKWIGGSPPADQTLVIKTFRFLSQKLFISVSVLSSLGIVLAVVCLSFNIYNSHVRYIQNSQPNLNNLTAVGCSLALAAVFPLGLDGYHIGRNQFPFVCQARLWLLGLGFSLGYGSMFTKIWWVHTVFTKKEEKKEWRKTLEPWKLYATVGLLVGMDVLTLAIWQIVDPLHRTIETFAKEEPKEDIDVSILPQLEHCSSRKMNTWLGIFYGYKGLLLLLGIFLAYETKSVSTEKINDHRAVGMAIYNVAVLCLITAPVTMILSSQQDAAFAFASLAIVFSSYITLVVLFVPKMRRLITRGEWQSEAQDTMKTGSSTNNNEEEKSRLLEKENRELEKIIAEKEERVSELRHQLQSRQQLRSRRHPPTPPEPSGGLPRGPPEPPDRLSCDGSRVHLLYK
Sequence of GABAb (O75899 42-941 partner): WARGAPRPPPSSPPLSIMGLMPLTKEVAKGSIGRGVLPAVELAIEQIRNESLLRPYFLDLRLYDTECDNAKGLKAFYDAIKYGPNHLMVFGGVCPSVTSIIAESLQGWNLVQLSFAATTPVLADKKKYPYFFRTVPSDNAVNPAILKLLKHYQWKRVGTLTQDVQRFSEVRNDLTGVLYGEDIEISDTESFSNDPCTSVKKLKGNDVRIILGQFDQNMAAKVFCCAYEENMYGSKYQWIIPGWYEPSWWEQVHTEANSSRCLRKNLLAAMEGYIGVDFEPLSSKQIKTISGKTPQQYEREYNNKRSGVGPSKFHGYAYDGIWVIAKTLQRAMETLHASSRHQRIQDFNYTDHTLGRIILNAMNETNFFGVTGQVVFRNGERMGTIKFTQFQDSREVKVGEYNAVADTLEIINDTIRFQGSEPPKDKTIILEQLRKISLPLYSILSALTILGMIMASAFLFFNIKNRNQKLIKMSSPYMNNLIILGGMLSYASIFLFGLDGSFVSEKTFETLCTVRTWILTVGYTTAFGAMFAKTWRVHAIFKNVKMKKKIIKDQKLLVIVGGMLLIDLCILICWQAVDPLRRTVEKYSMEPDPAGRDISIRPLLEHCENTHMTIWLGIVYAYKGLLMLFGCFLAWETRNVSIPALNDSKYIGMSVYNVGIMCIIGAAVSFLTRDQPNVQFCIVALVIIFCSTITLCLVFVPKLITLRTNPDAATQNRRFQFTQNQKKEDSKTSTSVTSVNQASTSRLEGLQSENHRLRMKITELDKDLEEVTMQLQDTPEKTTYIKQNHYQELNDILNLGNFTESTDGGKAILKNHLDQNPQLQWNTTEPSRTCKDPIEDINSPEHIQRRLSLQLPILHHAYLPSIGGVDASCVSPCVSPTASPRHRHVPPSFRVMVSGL
Sequence of D1 (P21728 whole entry): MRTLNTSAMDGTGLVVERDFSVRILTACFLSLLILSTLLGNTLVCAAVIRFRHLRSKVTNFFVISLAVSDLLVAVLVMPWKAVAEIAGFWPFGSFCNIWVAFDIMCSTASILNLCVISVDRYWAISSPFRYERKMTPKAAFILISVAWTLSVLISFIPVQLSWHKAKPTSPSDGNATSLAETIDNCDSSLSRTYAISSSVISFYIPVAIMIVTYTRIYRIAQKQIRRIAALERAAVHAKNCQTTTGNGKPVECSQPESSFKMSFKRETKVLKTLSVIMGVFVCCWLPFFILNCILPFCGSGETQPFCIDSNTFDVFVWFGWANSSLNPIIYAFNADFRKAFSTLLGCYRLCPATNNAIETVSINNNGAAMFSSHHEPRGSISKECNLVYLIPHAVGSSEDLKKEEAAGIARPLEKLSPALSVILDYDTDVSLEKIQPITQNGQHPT
Sequence of M1 (P11229 whole entry): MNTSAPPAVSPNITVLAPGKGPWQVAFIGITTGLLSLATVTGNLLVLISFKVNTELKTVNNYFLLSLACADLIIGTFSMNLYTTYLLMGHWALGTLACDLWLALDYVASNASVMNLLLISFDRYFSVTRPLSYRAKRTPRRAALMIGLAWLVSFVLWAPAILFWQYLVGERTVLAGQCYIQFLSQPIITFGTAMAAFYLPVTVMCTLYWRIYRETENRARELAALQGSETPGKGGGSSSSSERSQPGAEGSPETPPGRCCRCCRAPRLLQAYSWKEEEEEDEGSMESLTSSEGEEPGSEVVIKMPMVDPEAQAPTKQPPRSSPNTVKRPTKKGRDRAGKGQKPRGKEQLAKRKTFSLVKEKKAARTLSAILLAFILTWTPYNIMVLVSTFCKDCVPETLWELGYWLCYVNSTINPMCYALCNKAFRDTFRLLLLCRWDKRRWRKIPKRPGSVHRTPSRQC
Sequence of β1 (P08588 whole entry): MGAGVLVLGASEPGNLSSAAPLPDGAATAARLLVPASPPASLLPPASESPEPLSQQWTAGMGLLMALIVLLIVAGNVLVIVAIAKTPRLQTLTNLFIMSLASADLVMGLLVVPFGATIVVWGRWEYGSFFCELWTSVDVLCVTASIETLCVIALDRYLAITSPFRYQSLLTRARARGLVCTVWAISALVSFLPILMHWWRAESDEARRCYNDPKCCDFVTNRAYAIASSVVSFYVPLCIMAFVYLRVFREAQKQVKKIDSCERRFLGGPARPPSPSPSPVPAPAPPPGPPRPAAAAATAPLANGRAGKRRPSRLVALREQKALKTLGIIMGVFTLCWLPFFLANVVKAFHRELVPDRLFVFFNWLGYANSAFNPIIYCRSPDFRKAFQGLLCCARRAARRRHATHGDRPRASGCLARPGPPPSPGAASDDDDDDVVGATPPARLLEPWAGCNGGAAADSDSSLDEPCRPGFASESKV
Sequence of D3 (P35462 whole entry): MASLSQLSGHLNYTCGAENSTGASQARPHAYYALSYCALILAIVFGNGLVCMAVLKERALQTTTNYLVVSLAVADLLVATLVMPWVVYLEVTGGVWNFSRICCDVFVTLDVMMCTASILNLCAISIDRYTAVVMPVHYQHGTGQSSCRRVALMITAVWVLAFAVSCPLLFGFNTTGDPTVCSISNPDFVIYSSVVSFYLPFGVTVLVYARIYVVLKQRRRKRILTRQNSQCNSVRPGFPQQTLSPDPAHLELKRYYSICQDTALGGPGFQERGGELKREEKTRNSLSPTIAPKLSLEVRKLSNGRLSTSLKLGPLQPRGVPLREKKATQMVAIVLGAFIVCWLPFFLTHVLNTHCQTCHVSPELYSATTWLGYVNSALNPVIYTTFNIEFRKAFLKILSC
Sequence of M2 (P08172 whole entry): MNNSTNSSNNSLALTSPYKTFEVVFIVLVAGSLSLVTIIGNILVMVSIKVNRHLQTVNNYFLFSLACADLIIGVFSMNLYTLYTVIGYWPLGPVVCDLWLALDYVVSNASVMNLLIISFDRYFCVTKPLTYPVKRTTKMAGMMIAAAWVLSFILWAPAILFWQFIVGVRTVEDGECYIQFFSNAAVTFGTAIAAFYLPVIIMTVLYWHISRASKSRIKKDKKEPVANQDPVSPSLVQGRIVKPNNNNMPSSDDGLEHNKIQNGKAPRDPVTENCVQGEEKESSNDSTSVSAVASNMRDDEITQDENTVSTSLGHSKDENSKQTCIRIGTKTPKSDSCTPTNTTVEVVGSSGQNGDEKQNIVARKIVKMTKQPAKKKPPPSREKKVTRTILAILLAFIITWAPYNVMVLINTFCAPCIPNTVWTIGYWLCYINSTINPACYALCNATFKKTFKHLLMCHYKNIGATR

SMILES | Ki (human A2b receptor) [nM] | Ki [1] [nM] | percent inhibition of control specific binding (ADOtransporter) [%] | percent inhibition of control specific binding (α2(non-selective)) | inhibition at 1 µM (β1) [%] | inhibition at 1 µM (β2) [%] | percent inhibition of control specific binding (BZD (central)) | inhibition at 1 µM (D1) [%] | inhibition at 1 µM (D2) [%] | inhibition at 1 µM (D3) [%] | inhibition at 1 µM (D4.4 (h)) [%] | percent inhibition of control specific binding (GABAa) | inhibition at 1 µM (GABAb) [%] | percent inhibition of control specific binding (GABAtransporter) | percent inhibition of control specific binding (AMPA) | percent inhibition of control specific binding (PCP) | percent inhibition of control specific binding (P2X) | percent inhibition of control specific binding (P2Y) | percent inhibition of control specific binding (NMDA) | inhibition at 1 µM (M1) [%] | also measured
CCCCc1nc(N)c2nc(-n3nccn3)n(C)c2n1 [ST 1535, 2-butyl-9-methyl-8-(2H-1,2,3-triazol-2-yl)-9H-purine-6-ylamine] | 627 ± 45 | 1580 | 24 | — (The symbol — indicates an inhibition of less than 10%.) | < 10 | < 10 | — (The symbol — indicates an inhibition of less than 10%.) | < 10 | < 10 | < 10 | < 10 | — (The symbol — indicates an inhibition of less than 10%.) | < 10 | — (The symbol — indicates an inhibition of less than 10%.) | — (The symbol — indicates an inhibition of less than 10%.) | — (The symbol — indicates an inhibition of less than 10%.) | — (The symbol — indicates an inhibition of less than 10%.) | — (The symbol — indicates an inhibition of less than 10%.) | — (The symbol — indicates an inhibition of less than 10%.) | < 10 | inhibition at 1 µM (M2): < 10%; inhibition at 1 µM (M3): < 10%; inhibition at 1 µM (M4): < 10%; inhibition at 1 µM (Cholinetransporter): < 10%; percent inhibition of control specific binding (Opiate (non-selective)): — (The symbol — indicates an inhibition of less than 10%.); inhibition at 1 µM (5-HT2C (h)): < 10%; inhibition at 1 µM (5-HT4): < 10%; inhibition at 1 µM (5-HT5A (h)): < 10%; inhibition at 1 µM (5-HT transporter; 1 μM, mean values, n = 2, class symbol): < 10%
CCCCCc1nc(N)c2nc(-n3nccn3)n(C)c2n1 [ST 2097, 9-methyl-2-pentyl-8-(2H-1,2,3-triazol-2-yl)-9H-purine-6-ylamine] | 153 ± 13 | 519 | 34 | — (The symbol — indicates an inhibition of less than 10%.) | < 10 | < 10 | — (The symbol — indicates an inhibition of less than 10%.) | < 10 | < 10 | < 10 | < 10 | — (The symbol — indicates an inhibition of less than 10%.) | < 10 | — (The symbol — indicates an inhibition of less than 10%.) | — (The symbol — indicates an inhibition of less than 10%.) | — (The symbol — indicates an inhibition of less than 10%.) | — (The symbol — indicates an inhibition of less than 10%.) | — (The symbol — indicates an inhibition of less than 10%.) | — (The symbol — indicates an inhibition of less than 10%.) | < 10 | inhibition at 1 µM (M2): < 10%; inhibition at 1 µM (M3): < 10%; inhibition at 1 µM (M4): < 10%; inhibition at 1 µM (Cholinetransporter): < 10%; percent inhibition of control specific binding (Opiate (non-selective)): — (The symbol — indicates an inhibition of less than 10%.); inhibition at 1 µM (5-HT2C (h)): < 10%; inhibition at 1 µM (5-HT4): < 10%; inhibition at 1 µM (5-HT5A (h)): < 10%; inhibition at 1 µM (5-HT transporter): 13%
